The subject of one experiment is sarcoma 180 solid tumor. Kind of experiment: Effects on sarcoma 180 solid tumor (Test V). The conditions noted are these: Table IV; for T/C (tumor weight ratio treated/control): 15th-21st day. In kind it is in vivo, mouse (ICR). The protocol:
Test materials were prepared in the same manner as in Test IV under (1).
A cell suspension containing 1×10^8 cells per ml. was prepared in the same way as in Test IV under (2). Four week old-ICR mice was innoculated subcutaneously on the back with 0.1 ml. of the suspenstion by means of a syringe.
As in Test IV under (3), a group of 6 animals was used for each concentration of each test material.
Grown tumor tissue was resected on the 15th-21st day of the tumor cell transplantation and weighed. An average for the group of 6 animals was taken for the evaluation. The effect was evaluated on the basis of ratio of the average weight for the treated animals to that of the control animals. […] Ratios (T/C) of 100-71% were rated ineffective (-), of 70-51% plus 1 (+), of 50-21% plus 2 (++), and of 20-0% plus 3 (+++).

For experiment [1], the system named is sarcoma 180 ascites tumor. The experiment in a line: Effects on sarcoma 180 ascites tumor (Test IV). Format: in vivo, mouse (ICR). The conditions noted are these: Table III; for T/C (TPCV ratio treated/control): 4 days, 7th day. The protocol: A portion of each of the extraction fractions was suspended or dissolved in 0.5% suspension of carboxymethylcellulose (CMC) in a phosphate buffered saline solution (PBS commercially available from GIBCO Laboratories, containing ca. 9.5 mM phosphate) to a predetermined concentration.
Mouse sarcoma 180 tumor cells which have been subcultivated intraperitoneally in ICR mice were drawn from the mouse together with the ascites and diluted with physiological saline solution to a cell count of 10^8 per ml. The tumor cell suspension thus prepared was transplanted by means of a syringe intraperitoneally into 4 week-old male ICR mice at a dose of 0.1 ml. Consequently, the cell count transplanted per mouse was 1×10^7.
The test material as prepared above was intraperitoneally administered at a dose of 0.1 ml. per mouse for 4 days once a day from the next day of the transplantation of mouse sarcoma 180 tumor cells. A group of 6 mice was employed for each concentration of each test material. […] As a control was administered the CMC-containing PBS as described above only in the same way as above. The dose is expressed as weight per kg. bodyweight of mouse.
On the 7th day of transplantation of the tumor cells the bodyweight of each mouse was measured (X). Then, ascites was thoroughly drawn from the mouse, followed by measurement of the bodyweight (Y). X-Y is taken as the amount of ascites.
The drawn ascites was the introduced into a hematocrit tube and then centrifuged at 15,000 G for 5 minutes using a hematocrit rotor at a low temperature. There was thus made determination of the ascitocrit value, that is, proportion of the cells present in the ascites which corresponded to the hematocrit value in hematology. The value multiplied by volume of the ascites gives the volume of the cells present in the ascites. This is designated as total packed cell volume (TPCV).
Effect on the tumor was rated ineffective (-) when the TPCV ratio of the treated to the control (T/C) was 100-66%, plus 1 (+) when it was 65-41%, plus 2 (++) when it was 40-11%, and plus 3 (+++) when it was 10-0%.

The next experiment relates to mouse L-5178Y cells. The experiment in a line: Effects on mouse L-5178Y cells (Test III). Format: cell-based. The conditions noted are these: 2 days. The protocol: A medium containing 1×10^5 cells/ml. was prepared using mouse L-5178Y cells cultivated on RPMI-1640 medium containing 10% fetal bovine serum for 3 days. The medium was placed in a 96-well U-type microplate in an amount of 50 μl. per well.
A portion of the test material, which was one of the extracts according to the invention described in the above examples, was dissolved in the medium to a final concentration in the medium as shown in Table II below. The amount of the solution per well was 60 μl. The test material thus prepared was incubated in a carbon-dioxide incubator at 37° C. for 2 days. After completion of the incubation, the cells were collected and counted well by well, and the cell counts were compared with cell count of the control which contained no test material. The cell could of the control was approximately 8.6×10^5 /ml. For activity comparison's sake, the same test was done with mitomycin C (MMC) or bleomycin (BLM). In the table below, T/C represents the ratio of count of the cells treated with the test material to that with no test material added. ID50 is the concentration of the test material required for decreasing concentration of the cells to 1/2 that of the control.
The neem extracts produced in Examples 5-7 above were tested for effects on mouse L-5178Y cells, sarcoma 180 ascites and solid tumors according to the methods described in Tests II-IV.

≈ marks a conversion by molar mass, not a printed value. Where “and” joins values, the source holds several entries; their conditions need not be identical. Equal values may be shown once. *1 amine or outer side, *2 acyl side, *3 side chain or, on linkers, in order; H or OH if unused. Where a SMILES comes first, the peptide text is derived from it. Bridges are numbered along the chain shown (N, C = ends). Roman numbers before positions name the chains, in order. [ ]: non-standard residue; d: D form. Actinocin(9to1) = Cc1c2oc3c(C)ccc(C(=O)[*:1])c3nc-2c(C(=O)[*:2])c(N)c1=O; NMeV = CN[C@H](C(=O)O)C(C)C; Sar = CNCC(=O)O

bleomycin [BLM]: in the experiment on sarcoma 180 solid tumor (10 mg./kg.), the “T/C (tumor weight ratio treated/control)” value is 43.5% and 52.3%. Besides, the Rating entry in experiment [1] (10 mg./kg.) is given as “+++ (plus 3 (+++) when it was 10-0%)”. In experiment [1] (10 mg./kg. i.p. once a day), the “T/C (TPCV ratio treated/control)” value was 0%. Also, the entries for the “T/C (cell count treated / no test material)” value with mouse L-5178Y cells (5 μg./ml.), in the experiment on mouse L-5178Y cells (10 μg./ml.) and with mouse L-5178Y cells (100 μg./ml.) were 57.1%, 46.1% and 8.8%, respectively. Besides, in the experiment with mouse L-5178Y cells (Table II, concentration decreasing cells to 1/2 of control), the ID50 turned out to be 7.8 µg/mL.
With `Cc1c2oc3c(C)ccc(C(=O)N[C@@H]4C(=O)N[C@H](C(C)C)C(=O)N5CCC[C@H]5C(=O)N(C)CC(=O)N(C)[C@@H](C(C)C)C(=O)O[C@@H]4C)c3nc-2c(C(=O)N[C@@H]2C(=O)N[C@H](C(C)C)C(=O)N3CCC[C@H]3C(=O)N(C)CC(=O)N(C)[C@@H](C(C)C)C(=O)O[C@@H]2C)c(N)c1=O` [ACD, actinomycin D] (I: T[dV]P[Sar][NMeV] / II: T[dV]P[Sar][NMeV]; ester I:1-I:C, II:1-II:C; linker I:N-II:N via Actinocin(9to1)), in experiment [1] (0.1 mg./kg.), the Rating entry is listed as “+++ (plus 3 (+++) when it was 10-0%)”. The “T/C (TPCV ratio treated/control)” value in experiment [1] (0.1 mg./kg. i.p. once a day) was found to be 0%.
Turning to `O=c1[nH]cc(F)c(=O)[nH]1` [Example 5-Fu, 5-fluorouracil], in the experiment on sarcoma 180 solid tumor (20 mg./kg.), the Rating entry was “+ (of 70-51% plus 1 (+))” and the “T/C (tumor weight ratio treated/control)” value is recorded as 47.8%. In addition, the Rating result in experiment [1] (20 mg./kg.) is given as “+++ (plus 3 (+++) when it was 10-0%)”. Also, in experiment [1] (20 mg./kg. i.p. once a day), the “T/C (TPCV ratio treated/control)” value is on record as 0%.
Turning to `O=P1(N(CCCl)CCCl)NCCCO1` (centres unmarked) [CYP, cyclophosphamide], the Rating entry with sarcoma 180 solid tumor (33 mg./kg.) is “+++ (of 20-0% plus 3 (+++))”; with sarcoma 180 solid tumor (67 mg./kg.) it was “+++ (of 20-0% plus 3 (+++))”; in experiment [1] (33 mg./kg.) it was “+++ (plus 3 (+++) when it was 10-0%)”; in experiment [1] (67 mg./kg.) it was “+++ (plus 3 (+++) when it was 10-0%)”. Moreover, the “T/C (tumor weight ratio treated/control)” value with sarcoma 180 solid tumor (33 mg./kg.) and with sarcoma 180 solid tumor (67 mg./kg.) was 0% each time. In addition, the “T/C (TPCV ratio treated/control)” value in experiment [1] (33 mg./kg. i.p. once a day) and in experiment [1] (67 mg./kg. i.p. once a day) was 0% in each case.
For the compound `CO[C@@]12[C@H](COC(N)=O)C3=C(C(=O)C(C)=C(N)C3=O)N1C[C@@H]1N[C@@H]12` [MMC, mitomycin C], the values for the Rating entry (with sarcoma 180 solid tumor (0.5 mg./kg.); in experiment [1] (0.5 mg./kg.); in experiment [1] (1.5 mg./kg.)) were “- (Ratios (T/C) of 100-71% were rated ineffective (-))”, “+++ (plus 3 (+++) when it was 10-0%)” and “+++ (plus 3 (+++) when it was 10-0%)”, respectively. Moreover, the “T/C (tumor weight ratio treated/control)” value in the experiment with sarcoma 180 solid tumor (0.5 mg./kg.) is 71.0%; in the experiment with sarcoma 180 solid tumor (1.5 mg./kg.), 32.5% and 50.2%. Besides, the “T/C (TPCV ratio treated/control)” value in experiment [1] (0.5 mg./kg. i.p. once a day) and in experiment [1] (1.5 mg./kg. i.p. once a day) was 0% each time. Also, the activity at 0.1 µg/mL in the experiment on mouse L-5178Y cells (Mus musculus, L5178Y, 48 h, 0.1 μg./ml., read-out: T/C (cell count treated / no test material)) worked out at 47.9%. In addition, in the experiment with mouse L-5178Y cells (Mus musculus, L5178Y, 48 h, 0.3 μg./ml., read-out: T/C (cell count treated / no test material)), the activity at 0.3 µg/mL was 24.7%. Moreover, the activity at 1 µg/mL in the experiment with mouse L-5178Y cells (Mus musculus, L5178Y, 48 h, 1.0 μg./ml., read-out: T/C (cell count treated / no test material)) was found to be 13.4%. Besides, the IC50 in the experiment with mouse L-5178Y cells (Mus musculus, L5178Y, 48 h, Table II, concentration decreasing cells to 1/2 of control, read-out: ID50 (the source's name)) was found to be 0.09 µg/mL (≈ 0.269 µM).

The values above are taken from US4515785A, “Neem bark extracts” (priority 1980, dated 1985).
